Structures can show the parent of a compound that is named as a salt.
How the values were obtained:
[1] = target: T1, double-labeled CYP3A4 C64/C121-DY/ER (Homo sapiens, UniProt P08684, A121C/C239S/C377S/C468A/C98S/S18F); experiment: Steady-state LRET titration (delayed emission); conditions: Table S2; protein C64/C121-ER/DY; same ligand concentrations
Experimental: (§1) All absorbance and fluorescence assays (including the time-resolved fluorescence measurements) were performed at a protein concentration ≤1 µM at 25°C with continuous stirring. Absorbance spectra were recorded with an S2000 rapid scanning CCD spectrometer (Ocean Optics). Ligand binding assays were done in 100 mM Na-Hepes buffer, pH 7.4, containing 0.5 mM EDTA.
(§2) Fluorescence-based ligand binding assays were done under anaerobic conditions. Anaerobiosis was achieved using an oxygen-scavenging system consisting of protecatechuate-3,4-dioxygenase (0.5 units/ml) and 5 mM protocatechuic acid. The steady state and time-resolved phosphorescence measurements were performed with the use of a Cary Eclipse fluorescence spectrophotometer (Varian/Agilent Technologies). The excitation wavelength was set to 540 nm. Spectra were taken from 650 to 860 nm with 100 µs delay.
(§3) Quantitative interpretation of LRET results was also based on the use of PCA applied to a series of emission spectra normalized on integral intensity. […] Intensity of the donor and acceptor fluorescence obtained in this way were used in determination of the efficiency of steady-state LRET using the equation [drawing 1] (Eq.1) where I ad is emission intensity of the acceptor, I da is the residual donor emission in the presence of acceptor (I da), Φ a and Φ d are the quantum yield of the fluorescence of acceptor and the quantum yield of the phosphorescence of donor, respectively.
(§4) Distances were calculated using the equation: [drawing 3] (Eq.3) where R 0 is the Förster distance, and R is the distance between the donor and acceptor. R 0 was calculated with the use of PhotoChemCad software. In these calculations, we used the values of the orientation factor (κ^2) and the refractive index (n) of 0.667 and 1.4, respectively.
(§5) When fitting the results of titration experiments, where the changes in the monitored signal A S (fraction of the enzyme in the high-spin state, intensity or the lifetime of the donor phosphorescence at a given substrate concentration) were assumed to be proportional to [ES], this equation was complemented with the offset A 0 and the scaling factor A max to yield the following relationship: [drawing 5] (Eq.5)

[2] = target: double-labeled CYP3A4 C377/C468-DY/ER (Homo sapiens, UniProt P08684, S18F, form not given); experiment: Steady-state LRET titration (delayed emission); assay type: binding; conditions: Table S2, protein C377/C468-ER/DY; for R (interprobe distance with ligand), steady-state measurements / ΔR, steady-state measurements: same ligand concentrations
Experimental: as §1, §2, §3, §4, §5

[3] = target: double-labeled CYP3A4 (C64/C468)-DY/ER (Homo sapiens, UniProt P08684, S18F, form not given); experiment: Steady-state LRET titration (delayed emission); assay type: binding; conditions: for R (interprobe distance with ligand), steady-state measurements / ΔR, steady-state measurements: same ligand concentrations
Experimental: as §1, §2, §3, §4, §5

[4] = target: CYP3A4 (double-labeled (C64/C468)-DY/ER) (Homo sapiens, UniProt P08684, form not given/S18F); experiment: Steady-state LRET titration (delayed emission); assay type: binding; conditions: human, purified double-labeled CYP3A4 (C64/C468)-DY/ER protein, pH 7.4; (C64/C468)-DY/ER; LRET titration; read-out: K d, steady-state fluorescence
Experimental: as §1, §2, §3, §4, §5

[5] = target: T2, double-labeled CYP3A4 (C64/C468)-ER/DY (Homo sapiens, UniProt P08684, S18F, form not given); experiment: Steady-state LRET titration (delayed emission); assay type: binding; conditions: for R (interprobe distance with ligand), steady-state measurements / ΔR, steady-state measurements: same ligand concentrations
Experimental: as §1, §2, §3, §4, §5

[6] = target: T2, double-labeled CYP3A4 (C64/C468)-ER/DY; experiment: Time-resolved LRET (phosphorescence lifetime measurements); conditions: for τ1 (phosphorescence decay time with ligand) / F1 (fraction of first exponential) / τ2 (phosphorescence decay time with ligand) / τav (average phosphorescence lifetime with ligand): Table S1; for τ1 (phosphorescence decay time with ligand): bi-exponential fit; for F1 (fraction of first exponential) / τ2 (phosphorescence decay time with ligand) / τav (average phosphorescence lifetime with ligand) / R (interprobe distance with ligand), lifetime measurements / ΔR, lifetime measurements: same ligand concentrations
Description: The excitation wavelength was set to 540 nm.

CYP3A4 (C64/C468 mutant) = CYP3A4 (C64/C468 mutant) (Homo sapiens, UniProt P08684, form not given/S18F); experiment: Ligand-induced spin shift, absorbance titration; assay type: binding; conditions: human, purified CYP3A4(C64/C468) mutant protein, pH 7.4; read-out: K D or S 50
Experimental: as §1
(§6) Absorbance spectra obtained in titration experiments were analyzed with a principal component analysis (PCA) procedure complemented with least-square approximation of the principal vectors with a combination of the prototypical spectra of the CYP3A4 low-spin, high-spin and Type II-substrate-bound ferric CYP3A4 P450 states as described, [31].
as §5

[7] = target: CYP3A4 (C377/C468 mutant) (Homo sapiens, UniProt P08684, form not given/S18F); experiment: Ligand-induced spin shift, absorbance titration; assay type: binding; conditions: human, purified CYP3A4(C377/C468) mutant protein, pH 7.4; read-out: K D or S 50
Experimental: as §1, §6, §5

[8] = target: T1, double-labeled CYP3A4 C64/C121-DY/ER; experiment: Time-resolved LRET (phosphorescence lifetime measurements); conditions: for F1 (fraction of first exponential) / τ2 (phosphorescence decay time with ligand) / τav (average phosphorescence lifetime with ligand) / R (interprobe distance with ligand), lifetime measurements / ΔR, lifetime measurements: same ligand concentrations; for R (interprobe distance with ligand), lifetime measurements / ΔR, lifetime measurements: Table S2, protein C64/C121-ER/DY
Experimental: as §1, §2
The treatment of the time-resolved decay traces was performed using a bi-exponential approximation. The efficiency of time-resolved LRET was calculated using the equation [drawing 2] (Eq.2)
In this equation τda and τd designate the average lifetime of the excited state of the donor in the presence and absence of the acceptor, respectively. These average lifetimes are determined as τ = α1τ1+α2τ2, where τ1,2 and α1,2 stay for the lifetime and the relative amplitude of each of the two exponential terms. In our calculations of the lifetime in double-labeled C64/C468, C377/C468 and C64/C121 proteins we used the lifetimes of phosphorescence measured with the respective proteins labeled with ERIA at a label:protein ratio 2∶1 as the estimates of τd.
as §4

[9] = Table S2, C64/C468-ER/DY, 1-PB 40 µM, ANF 100 µM, BCT 2.5 µM, cholesterol 100 µM, testosterone 100 µM
[10] = (C64/C468)-ER/DY, nearly-saturating ligand: ANF 100 µM, bromocriptine 2.5 µM, cholesterol 50 µM, testosterone 100 µM
[11] = (C64/C468)-ER/DY, 1-PB 40 µM, ANF 100 µM, BCT 2.5 µM, cholesterol 100 µM, testosterone 100 µM
[12] = Table S1, protein (C64/C121)-ER/DY

T1 sequence (P08684 with tags, fused parts or gaps S18F/C98S/A121C/C239S/C377S/C468A limits assumed): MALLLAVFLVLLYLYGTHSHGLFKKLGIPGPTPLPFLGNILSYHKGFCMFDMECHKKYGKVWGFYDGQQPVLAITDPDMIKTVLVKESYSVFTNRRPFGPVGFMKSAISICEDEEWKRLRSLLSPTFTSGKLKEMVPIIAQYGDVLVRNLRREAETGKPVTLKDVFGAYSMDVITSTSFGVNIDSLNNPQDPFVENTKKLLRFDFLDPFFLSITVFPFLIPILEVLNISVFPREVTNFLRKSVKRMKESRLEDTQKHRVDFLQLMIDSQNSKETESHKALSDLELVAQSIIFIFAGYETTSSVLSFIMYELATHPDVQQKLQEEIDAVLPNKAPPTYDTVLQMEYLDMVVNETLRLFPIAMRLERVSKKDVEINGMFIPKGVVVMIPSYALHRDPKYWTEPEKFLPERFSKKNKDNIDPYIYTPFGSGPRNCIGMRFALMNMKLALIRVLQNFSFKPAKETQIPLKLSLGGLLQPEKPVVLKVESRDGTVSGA
double-labeled CYP3A4 (C64/C468)-DY/ER, sequence (P08684 13-503 S18F, form open): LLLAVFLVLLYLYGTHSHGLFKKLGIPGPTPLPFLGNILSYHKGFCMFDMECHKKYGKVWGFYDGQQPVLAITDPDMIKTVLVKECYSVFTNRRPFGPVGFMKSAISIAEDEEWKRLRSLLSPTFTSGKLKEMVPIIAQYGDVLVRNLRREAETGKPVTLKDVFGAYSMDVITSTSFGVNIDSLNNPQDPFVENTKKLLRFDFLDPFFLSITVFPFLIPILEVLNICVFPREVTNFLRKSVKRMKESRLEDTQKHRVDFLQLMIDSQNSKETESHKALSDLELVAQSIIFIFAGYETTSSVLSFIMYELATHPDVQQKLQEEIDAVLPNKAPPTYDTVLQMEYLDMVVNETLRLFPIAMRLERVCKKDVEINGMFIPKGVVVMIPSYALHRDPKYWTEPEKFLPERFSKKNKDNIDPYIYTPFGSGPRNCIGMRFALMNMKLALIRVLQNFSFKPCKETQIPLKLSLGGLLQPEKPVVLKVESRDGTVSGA
T2 sequence (P08684 13-503 S18F, form open): as above
double-labeled CYP3A4 C377/C468-DY/ER, sequence (P08684 13-503 S18F, form open): as above
CYP3A4 (double-labeled (C64/C468)-DY/ER), sequence (P08684 13-503 S18F, form open): as above
CYP3A4 (C377/C468 mutant), sequence (P08684 13-503 S18F, form open): as above
CYP3A4 (C64/C468 mutant), sequence (P08684 13-503 S18F, form open): as above

| Structure (SMILES) | R (interprobe distance with ligand), steady-state measurements [1] [Å] | ΔR, steady-state measurements [1] [Å] | R (interprobe distance with ligand), steady-state measurements [2] [Å] | ΔR, steady-state measurements [2] [Å] | ΔR (change in interprobe distance), steady-state fluorescence ([3]; (C64/C468)-DY/ER) [Å] | R (interprobe distance with ligand), steady-state measurements ([3]; Table S2, C64/C468-DY/ER) [Å] | ΔR, steady-state measurements ([3]; Table S2, C64/C468-DY/ER) [Å] | Kd [4] [µM] | ΔR (change in interprobe distance), steady-state fluorescence ([5]; (C64/C468)-ER/DY) [Å] | R (interprobe distance with ligand), steady-state measurements ([5]; Table S2, C64/C468-ER/DY) [Å] | ΔR, steady-state measurements ([5]; Table S2, C64/C468-ER/DY) [Å] | ΔR (change in interprobe distance), lifetime measurements [6, 10] [Å] | τ1 (phosphorescence decay time with ligand) [6, 11] [µs] | F1 (fraction of first exponential) ([6]; (C64/C468)-ER/DY) [%] | τ2 (phosphorescence decay time with ligand) ([6]; (C64/C468)-ER/DY) [µs] | τav (average phosphorescence lifetime with ligand) ([6]; (C64/C468)-ER/DY) [µs] | R (interprobe distance with ligand), lifetime measurements ([6]; Table S2, C64/C468-ER/DY) [Å] | ΔR, lifetime measurements ([6]; Table S2, C64/C468-ER/DY) [Å] | Kd (CYP3A4 (C64/C468 mutant)) [µM] | Kd [7] [µM] | other results |
| --- | --- | --- | --- | --- | --- | --- | --- | --- | --- | --- | --- | --- | --- | --- | --- | --- | --- | --- | --- | --- | --- |
| O=c1cc(-c2ccccc2)oc2c1ccc1ccccc12 [ANF, α-naphthoflavone] | 43.4 ± 0.1 | 1.1 ± 0.1 | 45.2 ± 0.1 | 0.5 ± 0.1 | 3.9±1.7 | 38.8 ± 1 | 3.9 ± 1.7 | 9.1 ± 2.9 | 2.1±0.9 | 41.2 ± 0.9 | 2.1 ± 0.9 | 4.1±0.2 | 53 ± 2 | 34 ± 1 | 216 ± 3 | 168 ± 1 | 40.4 ± 0.1 | 4.1 ± 0.1 | 5.1 ± 1.5 | 6.2 ± 1.2 | E (LRET efficiency with ligand), steady-state measurements ([2]; 1-PB 40 µM, ANF 100 µM, BCT 2.5 µM, cholesterol 100 µM, testosterone 100 µM): 14 ± 0%; ΔE (change in LRET efficiency), steady-state fluorescence ([3]; (C64/C468)-DY/ER, from maximal relative change in donor intensity): −18±1%; E (LRET efficiency with ligand), steady-state measurements ([3]; Table S2, C64/C468-DY/ER, 1-PB 40 µM, ANF 100 µM, BCT 2.5 µM, cholesterol 100 µM, testosterone 100 µM): 29 ± 1%; ΔE (change in LRET efficiency), steady-state fluorescence ([5]; (C64/C468)-ER/DY, from maximal relative change in donor intensity): −8±4%; E (LRET efficiency with ligand), steady-state measurements [5, 9]: 23 ± 2%; ΔELT (change in LRET efficiency), lifetime measurements [6, 10]: −14.5±1%; E (LRET efficiency with ligand), lifetime measurements [6, 9]: 28 ± 1%; F1 (fraction of first exponential) [8, 12]: 43 ± 7%; τ2 (phosphorescence decay time with ligand) [8, 12]: 232 ± 22 µs; τav (average phosphorescence lifetime with ligand) [8, 12]: 159 ± 7 µs; R (interprobe distance with ligand), lifetime measurements [8]: 36.4 ± 0.5 Å; ΔR, lifetime measurements [8]: 1.3 ± 0.5 Å |
| CC(C)C[C@H]1C(=O)N2CCC[C@H]2[C@]2(O)O[C@](NC(=O)[C@@H]3C=C4c5cccc6[nH]c(Br)c(c56)C[C@H]4N(C)C3)(C(C)C)C(=O)N12 [Bromocriptine, Bromocriptine mesylate] | 43.6 ± 0.9 | 1.0 ± 0.9 | 44.7 ± 0.1 | 0.0 ± 0.1 | 0.2±0.2 | 35.1 ± 0 | 0.2 ± 0.2 | 0.7 ± 0.1 | 0.5±1.6 | 39.6 ± 1.6 | 0.5 ± 1.6 | −0.3±0.6 | 39 ± 12 | 28 ± 5 | 168 ± 2 | 131 ± 5 | 36.0 ± 0.5 | -0.3 ± 0.5 | 0.34 ± 0.1 | 0.96 ± 0.2 | increase in the interprobe distance ([8]; C64/C121-DY/ER, stated for both steady-state and lifetime experiments): 1.3 Å; τ1 (phosphorescence decay time with ligand) ([8]; Table S1, protein (C64/C121)-ER/DY, 1-PB 40 µM, ANF 100 µM, BCT 2.5 µM, cholesterol 100 µM, testosterone 100 µM, bi-exponential fit): 75 ± 13 µs; F1 (fraction of first exponential) [8, 12]: 49 ± 5%; τ2 (phosphorescence decay time with ligand) [8, 12]: 242 ± 15 µs; τav (average phosphorescence lifetime with ligand) [8, 12]: 159 ± 2 µs; R (interprobe distance with ligand), lifetime measurements [8]: 36.4 ± 0.1 Å; ΔR, lifetime measurements [8]: 1.3 ± 0.1 Å |

From publication PMC3871636 (PLoS ONE, 2013)
